# Assay results: US20080045525A1, “Piperazinyl-Pyridine Analogues” (priority 2004, published 2008)
# Target: T1, human capsaicin receptor (Homo sapiens, UniProt Q8NER1)
# T1 construct: transfected with the pBK-CMV expression construct encoding the full length human capsaicin receptor; expressed in transfected cells
# Assay: Calcium mobilization assay, determination of antagonist activity
# Format: cell-based
# Conditions: cells expressing human capsaicin receptor; capsaicin at its EC50; FLUO-3 fluorescence
# Procedure: A cDNA encoding full length human capsaicin receptor (SEQ ID NO:1, 2 or 3 of U.S. Pat. No. 6,482,611) was subcloned in the plasmid pBK-CMV (Stratagene, La Jolla, Calif.) for recombinant expression in mammalian cells.
# Human embryonic kidney (HEK293) cells were transfected with the pBK-CMV expression construct encoding the full length human capsaicin receptor using standard methods. The transfected cells were selected for two weeks in media containing G418 (400 μg/ml) to obtain a pool of stably transfected cells. Independent clones were isolated from this pool by limiting dilution to obtain clonal stable cell lines for use in subsequent experiments.
# (§1) Cells transfected with expression plasmids (as described in Example 4) and thereby expressing human capsaicin receptor are seeded and grown to 70-90% confluency in FALCON black-walled, clear-bottomed 96-well plates (#3904, BECTON-DICKINSON, Franklin Lakes, N.J.). The culture medium is emptied from the 96 well plates and FLUO-3 AM calcium sensitive dye (Molecular Probes, Eugene, Oreg.) is added to each well (dye solution: 1 mg FLUO-3 AM, 440 μL DMSO and 440 μl 20% pluronic acid in DMSO, diluted 1:250 in Krebs-Ringer HEPES (KRH) buffer (25 mM HEPES, 5 mM KCl, 0.96 mM NaH2PO4, 1 mM MgSO4, 2 mM CaCl2, 5 mM glucose, 1 mM probenecid, pH 7.4), 50 μl diluted solution per well). Plates are covered with aluminum foil and incubated at 37° C. for 1-2 hours in an environment containing 5% CO2. After the incubation, the dye is emptied from the plates, and the cells are washed once with KRH buffer, and resuspended in KRH buffer.
# To measure the ability of a test compound to agonize or antagonize a calcium mobilization response in cells expressing capsaicin receptors to capsaicin or other vanilloid agonist, the EC50 of the agonist capsaicin is first determined. An additional 20 μl of KRH buffer and 1 μl DMSO is added to each well of cells, prepared as described above. 100 μl capsaicin in KRH buffer is automatically transferred by the FLIPR instrument to each well. Capsaicin-induced calcium mobilization is monitored using either FLUOROSKAN ASCENT (Labsystems; Franklin, Mass.) or FLIPR (fluorometric imaging plate reader system; Molecular Devices, Sunnyvale, Calif.) instruments. Data obtained between 30 and 60 seconds after agonist application are used to generate an 8-point concentration response curve, with final capsaicin concentrations of 1 nM to 3 μM. […] software (Synergy Software, Reading, Pa.) is used to fit the data to the equation: y=a*(1/(1+(b/x)^c)) to determine the 50% excitatory concentration (EC50) for the response. In this equation, y is the maximum fluorescence signal, x is the concentration of the agonist or antagonist (in this case, capsaicin), a is the Emax, b corresponds to the EC50 value and c is the Hill coefficient. Determination of Agonist Activity
# Test compounds are dissolved in DMSO, diluted in 20 μl KRH buffer so that the final concentration of test compounds in the assay well is between 1 μM and 5 μM, and added to cells prepared as described above. The 96 well plates containing prepared cells and test compounds are incubated in the dark, at room temperature for 0.5 to 6 hours. It is important that the incubation not continue beyond 6 hours. Just prior to determining the fluorescence response, 100 μl capsaicin in KRH buffer at twice the EC50 concentration determined as described above is automatically added by the FLIPR instrument to each well of the 96 well plate for a final sample volume of 200 μl and a final capsaicin concentration equal to the EC50. The final concentration of test compounds in the assay wells is between 1 μM and 5 μM.
# T1 sequence (Q8NER1 whole entry): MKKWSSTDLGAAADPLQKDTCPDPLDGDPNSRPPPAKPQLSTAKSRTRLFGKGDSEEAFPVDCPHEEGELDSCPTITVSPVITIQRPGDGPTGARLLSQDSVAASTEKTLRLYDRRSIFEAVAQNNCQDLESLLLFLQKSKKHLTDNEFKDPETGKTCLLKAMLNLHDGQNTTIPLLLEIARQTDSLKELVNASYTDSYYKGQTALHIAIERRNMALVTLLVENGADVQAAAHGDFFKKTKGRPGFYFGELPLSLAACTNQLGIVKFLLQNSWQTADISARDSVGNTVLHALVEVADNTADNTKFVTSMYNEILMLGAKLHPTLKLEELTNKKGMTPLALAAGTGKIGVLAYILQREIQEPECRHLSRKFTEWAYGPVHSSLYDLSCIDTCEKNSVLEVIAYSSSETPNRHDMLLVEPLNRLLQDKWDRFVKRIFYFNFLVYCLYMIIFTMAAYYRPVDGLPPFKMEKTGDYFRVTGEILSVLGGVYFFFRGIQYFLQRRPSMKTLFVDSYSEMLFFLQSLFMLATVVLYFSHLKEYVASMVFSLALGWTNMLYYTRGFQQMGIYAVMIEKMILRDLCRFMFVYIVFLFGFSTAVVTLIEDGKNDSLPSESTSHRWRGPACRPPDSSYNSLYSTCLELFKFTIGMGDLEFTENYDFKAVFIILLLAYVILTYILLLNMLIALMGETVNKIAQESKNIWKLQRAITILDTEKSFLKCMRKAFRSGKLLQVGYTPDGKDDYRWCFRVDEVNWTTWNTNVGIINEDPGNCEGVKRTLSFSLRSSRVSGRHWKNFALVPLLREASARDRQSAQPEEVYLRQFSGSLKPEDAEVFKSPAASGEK
row,IC50,SMILES
1,≤ 1000 nM,OCCC1CCN(c2cc(N3CCN(c4ncccc4C(F)(F)F)CC3)nc(N3CCOCC3)n2)CC1 [2-[1-(2-morpholin-4-yl-6-{4-[3-(trifluoromethyl)pyridin-2-yl]piperazin-1-yl}pyrimidin-4-yl)piperidin-4-yl]ethanol]
2,≤ 1000 nM,"FC(F)(F)c1cccnc1N1CCN(c2cc(N3CCOCC3)nc(N3CCOCC3)n2)CC1 [4,4′-(6-{4-[3-(trifluoromethyl)pyridin-2-yl]piperazin-1-yl}pyrimidine-2,4-diyl)dimorpholine]"
3,≤ 1000 nM,FC(F)(F)c1cccnc1N1CCN(c2cc(N3CCCCC3)nc(N3CCOCC3)n2)CC1 [4-(4-piperidin-1-yl-6-{4-[3-(trifluoromethyl)pyridin-2-yl]piperazin-1-yl}pyrimidin-2-yl)morpholine]
4,≤ 1000 nM,FC(F)(F)c1cccnc1N1CCN(c2cc(N3CCCC3)nc(N3CCOCC3)n2)CC1 [4-(4-pyrrolidin-1-yl-6-{4-[3-(trifluoromethyl)pyridin-2-yl]piperazin-1-yl}pyrimidin-2-yl)morpholine]
5,≤ 1000 nM,Fc1ccc2c(c1)CCN2c1cc(N2CCN(c3ncccc3C(F)(F)F)CC2)nc(N2CCOCC2)n1 [5-fluoro-1-(2-morpholin-4-yl-6-{4-[3-(trifluoromethyl)pyridin-2-yl]piperazin-1-yl}pyrimidin-4-yl)indoline]
6,≤ 1000 nM,Cc1cc(C(N)=O)cnc1N1CCN(c2cc(N3CCCCC3)nc(N3CCCC3C)n2)[C@H](C)C1 (stereo partly shown) [5-methyl-6-{3-methyl-4-[2-(2-methylpyrrolidin-1-yl)-6-piperidin-1-ylpyrimidin-4-yl]piperazin-1-yl}nicotinamide]
7,≤ 1000 nM,Cc1cc(C(=O)O)cnc1N1CCN(c2cc(N3CCCCC3)nc(N3CCCC3C)n2)[C@H](C)C1 (stereo partly shown) [5-methyl-6-{3-methyl-4-[2-(2-methylpyrrolidin-1-yl)-6-piperidin-1-ylpyrimidin-4-yl]piperazin-1-yl}nicotinic acid]
8,≤ 1000 nM,Cc1cc(C(=O)O)cnc1N1CCN(c2cc(N3CCC(F)CC3)nc(N3CCCC3C)n2)[C@H](C)C1 (stereo partly shown) [6-{4-[6-(4-fluoropiperidin-1-yl)-2-(2-methylpyrrolidin-1-yl)pyrimidin-4-yl]-3-methylpiperazin-1-yl}-5-methylnicotinic acid]
9,≤ 1000 nM,"FC(F)(F)c1cccnc1N1CCN(c2cc(N3CCC4(CC3)OCCO4)nc(N3CCOCC3)n2)CC1 [8-(2-morpholin-4-yl-6-{4-[3-(trifluoromethyl)pyridin-2-yl]piperazin-1-yl}pyrimidin-4-yl)-1,4-dioxa-8-azaspiro[4.5]decane]"
10,≤ 1000 nM,Cc1cc(CO)cnc1N1CCN(c2cc(N3CCCCC3)nc(N3CCCC3C)n2)[C@H](C)C1 (stereo partly shown) [(5-methyl-6-{3-methyl-4-[2-(2-methylpyrrolidin-1-yl)-6-piperidin-1-ylpyrimidin-4-yl]piperazin-1-yl}pyridin-3-yl)methanol]
11,≤ 1000 nM,CCOC(=O)c1cnc(N2CCN(c3cc(N4CCCCC4)nc(N4CCCC4C)n3)[C@H](C)C2)c(C)c1 (stereo partly shown) [ethyl 5-methyl-6-{3-methyl-4-[2-(2-methylpyrrolidin-1-yl)-6-piperidin-1-ylpyrimidin-4-yl]piperazin-1-yl}nicotinate]

# Target: T1, human capsaicin receptor
# Assay: Calcium mobilization assay, agonist response (capsaicin positive control)
# Format: cell-based
# Conditions: capsaicin as positive control in cells expressing human capsaicin receptor; read-out: approximate EC90 concentration
# Procedure: as §1, with “Plates are covered with aluminum foil and incubated at 37° C. for 1-2 hours in an environment containing 5% CO2. After the incubation, the dye is emptied from the plates, and the cells are washed once with KRH buffer, and resuspended in KRH buffer.” left out
# To measure the ability of a test compound to agonize or antagonize a calcium mobilization response in cells expressing capsaicin receptors to capsaicin or other vanilloid agonist, the EC50 of the agonist capsaicin is first determined. […] Capsaicin-induced calcium mobilization is monitored using either FLUOROSKAN ASCENT (Labsystems; Franklin, Mass.) or FLIPR (fluorometric imaging plate reader system; Molecular Devices, Sunnyvale, Calif.) instruments. […] In this equation, y is the maximum fluorescence signal, x is the concentration of the agonist or antagonist (in this case, capsaicin), a is the Emax, b corresponds to the EC50 value and c is the Hill coefficient. […]
row,EC90,SMILES
1,~100 nM,COc1cc(CNC(=O)CCCC/C=C/C(C)C)ccc1O [capsaicin]

# Target: VR
# Assay: not given
# Conditions: typical value, non-selective cation channel blocker; cited from earlier work
row,SMILES,Ki
1,Cl.Cl.Cl.Cl.Cl.Cl.N.N.N.N.N.N.N.N.N.N.N.N.N.N.[O-2].[O-2].[Ru+3].[Ru+3].[Ru+4] [ruthenium red],≥ 140000 nM
